Laboratory results reported in patent publication EP2982368A1, “Small molecule compounds displacing focal adhesion core components” (Universität Konstanz, priority 2014, dated 2016).

The compounds below were run on MDA-MB-231 breast cancer cells (assay: In vitro wound healing assay). Conditions: 3 µM, 25 h, serum-containing growth medium.
Type: cell-based, human
Description: Image J was used to automatically quantify FAK-containing focal adhesions due to local maxima of fluorescence intensity in the GFP-channel (5 to 70 pixel). The number of cells was automatically counted in the Hoechst channel. To test reproducibility of the system 40 control wells were quantified wherein four positions for each well were imaged. […] GFP-FAK mouse embryonic fibroblasts were seeded on fibronectin and incubated for 1 h with the indicated concentrations of the small compounds, respectively. […] GFP-FAK mouse embryonic fibroblasts were seeded on fibronectin and serum-starved overnight. The indicated concentrations of Mb31 were applied for 30 min. Cells were lysed and analyzed for paxillin and FAK protein level as well as FAK Tyr397 phosphorylation. […] The purified kinase domain of FAK was incubated with increasing amounts of Mb31 for 1 h at 30°C together with poly-Glu-Tyr as a FAK substrate. […] Serum-starved GFP-FAK mouse embryonic fibroblasts were stimulated with normal growth medium and incubated for 5 h with the indicated concentrations of the small molecule compounds, respectively. Cell viability was assessed by MTT assay. […] GFP-FAK MEFs were seeded on fibronectin and serum-starved overnight. Migration was stimulated by replacing the medium with normal growth medium. Migration of single cells was tracked for 8 h in 30 min intervals. Migration was recorded from cells that were cultured without serum (A), with serum (B) or with serum in the presence of 3 µM Mb31 (C). […] (A) GFP-FAK MEFs were seeded and serum-starved as in Figure 10. Cell migration was stimulated with normal growth medium and single cells were tracked for 5 h. (B) Mb31 was added and the same cells were tracked for additional 5 h. (C) Mean velocities of differently treated cells were plotted over time. […] NIH-v-Src fibroblasts were seeded on 2 µg/ml FN in DMEM/0.5%BSA and stimulated with 10 ng/ml EGF or kept unstimulated. […] Mouse embryonic fibroblasts (MEFs) were transfected with talin-mCherry and talin dynamics analyzed in focal adhesions using fluorescence recovery after photobleaching (FRAP). Cells were left untreated (A) or treated with 10 µM of Mb31 (B). In untreated cells, the mCherry intensity recovered, indicating replacement of bleached by non-bleached talin and therefore turnover of talin at focal adhesions. […] (C) Wound closure was microscopically analyzed and evaluated using ImageJ software.
To determine if the migration of transformed cells can be blocked by FLocker1 and related compounds, human breast carcinoma cells (MDA-MB-231) were used in in vitro wound healing assays. […] The ability of the cells to migrate and close the wound space was monitored by microscopy and quantified (Figure 18B and C).

Row | Compound | migration of cancer cells / wound closure
1 | O=[N+]([O-])/C=C/c1ccccc1F [FootLocker 9, (E)-1-fluoro-2-(2-nitrovinyl) benzene] | retarded the migration of the cancer cells
2 | O=[N+]([O-])/C=C/c1ccc(F)cc1 [FootLocker 14, (E)-1-fluoro-4-(2-nitrovinyl)benzene] | retarded the migration of the cancer cells

These compounds were tested against T1, FAK/Paxillin (Mus musculus, UniProt P34152+Q8VI36) (assay: FAK/Paxillin displacement by structurally related compounds (FootLocker series, confocal microscopy)). Conditions: not given.
T1 construct: expressed in transfected cells; host or cells: mouse fibroblasts stably expressing GFP-FAK
Type: cell-based
Parameters: key to Activtiy (activity towards FAK/Paxillin displacement): ++ indicates displacing effect at 5 µM; + at 20 µM; - indicates no observed effect
Description: To determine whether compounds structurally related to Mb31 and Mb36 are likewise suitable to interfere with FAK localization at focal adhesions, mouse fibroblasts stably expressing GFP-FAK were treated for 30 min with 1, 10 or 20 µM of the following compounds: trans-3-hydroxy-β-nitrostyrene (THBN), trans-4-Chloro-β-nitrostyrene (T4CN), trans-β-nitrostyrene (TBN), 4-chlorocinnamic acid (4CA), and trans-3-(4-bromothiophen-2-yl)acrylic acid (T34BA) (Figures 16 and 17). The cells were analyzed by confocal microscopy for GFP-FAK localization. DMSO treatment served as a vehicle control. […] Additional substituents at the aromatic structures, such as halogen atoms or hydroxy groups may contribute to the reactivity of the compound, but are not essential. Based on these findings, the inventors have extended their structure activity-relationship studies and synthesized additional related compounds, which, similar to Mb31, displace FAK and paxillin at concentrations below 10µM (++), displace FAK and paxillin at concentrations above 10 µM (+), or lack FAK and paxillin displacing activity (-). All these substances were then also nicknamed in the FLocker terminology, resulting in FLocker1 - FLocker24 (Table 2). Table 2: Overview of FootLocker nomenclature, their chemical notation/structure and the activity towards FAK/Paxillin displacement

T1 sequence (P34152 whole entry): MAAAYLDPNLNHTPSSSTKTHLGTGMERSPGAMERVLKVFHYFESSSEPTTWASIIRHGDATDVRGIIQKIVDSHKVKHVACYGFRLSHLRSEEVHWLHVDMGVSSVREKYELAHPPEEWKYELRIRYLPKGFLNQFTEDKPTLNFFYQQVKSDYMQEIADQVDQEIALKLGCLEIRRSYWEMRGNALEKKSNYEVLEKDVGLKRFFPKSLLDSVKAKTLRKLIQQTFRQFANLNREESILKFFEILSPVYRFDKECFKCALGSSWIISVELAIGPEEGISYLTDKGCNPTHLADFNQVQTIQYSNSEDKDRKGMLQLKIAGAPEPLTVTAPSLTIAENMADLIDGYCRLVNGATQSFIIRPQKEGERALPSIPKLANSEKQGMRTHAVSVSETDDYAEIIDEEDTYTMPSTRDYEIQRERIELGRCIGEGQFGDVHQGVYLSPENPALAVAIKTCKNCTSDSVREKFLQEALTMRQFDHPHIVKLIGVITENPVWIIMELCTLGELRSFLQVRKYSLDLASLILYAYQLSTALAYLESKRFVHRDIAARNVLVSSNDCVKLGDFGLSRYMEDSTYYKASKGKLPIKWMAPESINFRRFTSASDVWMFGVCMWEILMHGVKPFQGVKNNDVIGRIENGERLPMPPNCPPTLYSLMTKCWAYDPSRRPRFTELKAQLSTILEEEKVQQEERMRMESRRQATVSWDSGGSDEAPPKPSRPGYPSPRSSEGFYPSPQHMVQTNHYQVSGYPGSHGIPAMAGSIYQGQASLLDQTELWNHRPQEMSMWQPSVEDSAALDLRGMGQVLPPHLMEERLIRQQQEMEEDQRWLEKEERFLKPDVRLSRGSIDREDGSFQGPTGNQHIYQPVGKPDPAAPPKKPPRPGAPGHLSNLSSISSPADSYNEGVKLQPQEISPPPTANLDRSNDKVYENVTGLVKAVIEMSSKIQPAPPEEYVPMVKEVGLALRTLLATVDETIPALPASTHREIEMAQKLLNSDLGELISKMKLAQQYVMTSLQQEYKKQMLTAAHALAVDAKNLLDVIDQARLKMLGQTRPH
T1 sequence (Q8VI36 whole entry): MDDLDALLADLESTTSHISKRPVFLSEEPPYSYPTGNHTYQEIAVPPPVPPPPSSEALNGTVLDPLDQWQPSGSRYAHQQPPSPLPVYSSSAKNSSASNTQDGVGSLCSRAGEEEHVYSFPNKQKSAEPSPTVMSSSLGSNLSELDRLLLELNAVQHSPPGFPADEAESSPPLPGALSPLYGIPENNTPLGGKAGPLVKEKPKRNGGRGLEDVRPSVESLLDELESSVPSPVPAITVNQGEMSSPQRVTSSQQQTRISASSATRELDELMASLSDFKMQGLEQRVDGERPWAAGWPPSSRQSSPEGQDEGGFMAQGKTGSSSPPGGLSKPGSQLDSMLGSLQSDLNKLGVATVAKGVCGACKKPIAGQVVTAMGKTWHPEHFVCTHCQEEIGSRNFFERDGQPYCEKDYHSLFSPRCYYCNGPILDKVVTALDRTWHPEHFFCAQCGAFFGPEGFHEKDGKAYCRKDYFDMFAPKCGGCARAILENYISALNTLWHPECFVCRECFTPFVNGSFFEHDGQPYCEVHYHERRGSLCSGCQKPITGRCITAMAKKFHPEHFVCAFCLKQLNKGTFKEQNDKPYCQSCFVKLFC

Row | Compound | Activtiy (activity towards FAK/Paxillin displacement) | disruption of protein-protein interactions at focal adhesion site | compounds showing the most prominent effect on protein-protein interactions at focal adhesion site
3 | Cc1ccc(/C=C/[N+](=O)[O-])cc1 [compound 10] | ++ (++ indicates displacing effect at 5 µM) |  | 
4 | C/C(=C\c1ccccc1)[N+](=O)[O-] [FootLocker 15, (E)-(2-nitroprop-1-en 1-yl)benzene] |  | efficiently disrupt protein-protein interactions at focal adhesion site | 
5 | [N-]=[N+]=NCCOCCOCCOCCNC(=O)CCCCCCOc1cccc(C=O)c1 [compound 6] | - |  | 
6 | O=[N+]([O-])/C=C/c1cccc(Br)c1 [compound 11] | + (+ at 20 µM) |  | 
7 | O=C/C=C/c1ccc(Cl)cc1 [compound 22] | - |  | 
8 | CCOC(=O)CCCCCOc1ccc(/C=C/[N+](=O)[O-])cc1 [compound 5] | + (+ at 20 µM) |  | 
9 | COc1cccc(/C=C/[N+](=O)[O-])c1 [compound 4] | ++ (++ indicates displacing effect at 5 µM) |  | 
10 | O=[N+]([O-])/C=C/c1c[nH]c2ccccc12 [compound 19] | - |  | 
11 | O=[N+]([O-])/C=C/c1ccc(F)cc1 [compound 14] | ++ (++ indicates displacing effect at 5 µM) |  | 
12 | O=[N+]([O-])/C=C/c1cccc(Br)c1 [FootLocker 11, (E)-1-bromo-3-(2-nitrovinyl)benzene] |  | efficiently disrupt protein-protein interactions at focal adhesion site | 
13 | O=[N+]([O-])/C=C/c1cccc(Cl)c1 [compound 12] | + (+ at 20 µM) |  | 
14 | (E)-ethyl 6-(4-(2-nitrovinyl)phenoxy)hexanoate [FootLocker 5] |  | efficiently disrupt protein-protein interactions at focal adhesion site | 
15 | O=[N+]([O-])C=Cc1cccnc1 [FootLocker 18, 3-(2-nitro-vinyl)-pyridine] |  | efficiently disrupt protein-protein interactions at focal adhesion site | 
16 | O=[N+]([O-])/C=C/c1ccccc1F [compound 9] | ++ (++ indicates displacing effect at 5 µM) |  | 
17 | O=[N+]([O-])/C=C/c1ccccc1O [FootLocker 8, (E)-2-(2-nitrovinyl)phenol] |  | efficiently disrupt protein-protein interactions at focal adhesion site | 
18 | O=[N+]([O-])/C=C/c1cc(Br)cs1 [compound 1] | ++ (++ indicates displacing effect at 5 µM) |  | 
19 | O=[N+]([O-])/C=C/c1ccccc1F [FootLocker 9, (E)-1-fluoro-2-(2-nitrovinyl) benzene] |  | efficiently disrupt protein-protein interactions at focal adhesion site | most prominent effect

Row | Compound | Activtiy (activity towards FAK/Paxillin displacement) | disruption of protein-protein interactions at focal adhesion site | compounds showing the most prominent effect on protein-protein interactions at focal adhesion site
20 | O=[N+]([O-])/C=C/c1cccnc1 [compound 18] | + (+ at 20 µM) |  | 
21 | [N-]=[N+]=NCCOCCOCCOCCNC(=O)CCCCCCOc1cccc(/C=C/[N+](=O)[O-])c1 [FootLocker 7, (E)-N-(2-(2-(2-(2-azidoethoxy)ethoxy)ethoxy)ethyl)-7-(3-(2-nitrovinyl)phenoxy)heptanamide] |  | efficiently disrupt protein-protein interactions at focal adhesion site | 
22 | Nc1ccc(SC(C[N+](=O)[O-])c2ccc(Cl)cc2)cc1 (stereo not shown) [compound 2] | ++ (++ indicates displacing effect at 5 µM) |  | 
23 | COc1cccc(/C=C/[N+](=O)[O-])c1 [FootLocker 4, (E)-1-methoxy-3-(2-nitrovinyl)benzene] |  | efficiently disrupt protein-protein interactions at focal adhesion site | most prominent effect
24 | C/C(=C\c1ccc(Br)cc1)[N+](=O)[O-] [compound 16] | ++ (++ indicates displacing effect at 5 µM) |  | 
25 | O=[N+]([O-])/C=C/c1ccc(F)cc1 [FootLocker 14, (E)-1-fluoro-4-(2-nitrovinyl)benzene] |  | efficiently disrupt protein-protein interactions at focal adhesion site | most prominent effect
26 | O=[N+]([O-])/C=C/c1cccc([N+](=O)[O-])c1 [FootLocker 13, (E)-1-nitro-3-(2-nitrovinyl)benzene] |  | efficiently disrupt protein-protein interactions at focal adhesion site | most prominent effect
27 | O=[N+]([O-])/C=C/c1cccc(O)c1 [compound 3] | ++ (++ indicates displacing effect at 5 µM) |  | 
28 | O=[N+]([O-])C=Cc1ccco1 [FootLocker 17, 2-(2-Nitrovinyl)-furan] |  | efficiently disrupt protein-protein interactions at focal adhesion site | most prominent effect
29 | O=[N+]([O-])/C=C/c1cccc(Cl)c1 [FootLocker 12, (E)-1-chloro-3-(2-nitrovinyl)benzene] |  | efficiently disrupt protein-protein interactions at focal adhesion site | 
30 | O=[N+]([O-])/C=C/c1ccccc1O [compound 8] | + (+ at 20 µM) |  | 
31 | C/C(=C\c1ccc(Br)cc1)[N+](=O)[O-] [FootLocker 16, 1-bromo-4-[(1E)-2-nitro-1-propenyl]benzene] |  | efficiently disrupt protein-protein interactions at focal adhesion site | most prominent effect
32 | O=[N+]([O-])/C=C/c1cn(-c2ccccc2)c2ccccc12 [compound 20] | - |  | 
33 | [N-]=[N+]=NCCOCCOCCOCCNC(=O)CCCCCCOc1cccc(/C=C/[N+](=O)[O-])c1 [compound 7] | + (+ at 20 µM) |  | 
34 | O=C(O)/C=C/c1cc(Br)cs1 [compound 24] | - |  | 
35 | O=[N+]([O-])/C=C/c1ccco1 [compound 17] | ++ (++ indicates displacing effect at 5 µM) |  | 
36 | Cc1ccc(/C=C/[N+](=O)[O-])cc1 [FootLocker 10, (E)-1-methyl-4-(2-nitrovinyl) benzene] |  | efficiently disrupt protein-protein interactions at focal adhesion site | most prominent effect
